Values of other authors as cited in US7977452B2, “Janus dendrimers and dendrons” (Dendritic Nanotechnologies, Inc., priority 2005, dated 2011).

Legend:
[1] = Gd-chelate PAMAM dendrimer contrast agent
Mouse [2] = system: Mouse
Mouse [3] = system: Mouse; remark: listed apart in the source
[4] = in vivo

O=C(O)CN(CCN(CC(=O)O)CC(=O)O)CCN(CC(=O)O)CC(=O)O (Gd complex, metal not drawn) [DTPA, diethylenetriaminepentaacetic acid]
Size [1]: >1 nm

CNC[C@H](O)[C@@H](O)[C@H](O)[C@H](O)CO.CNC[C@H](O)[C@@H](O)[C@H](O)[C@H](O)CO.O=C([O-])CN(CCN(CC(=O)[O-])CC(=O)O)CCN(CC(=O)[O-])CC(=O)O.[Gd+3] [(NMG)2-Gd-DTPA]
LD50 (Mouse [2]): 8.2 mmol·kg | Effective dose (ED) (Mouse [3]): 0.1 mmol·kg

O=C(O)CN(CCN(CC(=O)O)CC(=O)O)CCN(CC(=O)O)CC(=O)O [DTPA, diethylenetriaminepentaacetic acid]
Excretion [4]: Kidney

O=C([O-])CN1CCNCCN(CC(=O)[O-])CCN(CC(=O)[O-])CC1.[Gd+3] [Gd(III)-DO3A]
LD50 (Mouse [2]): 7 mmol·kg | Effective dose (ED) (Mouse [3]): 0.1 mmol·kg

CNC(=O)CN(CCN(CCN(CC(=O)[O-])CC(=O)NC)CC(=O)[O-])CC(=O)[O-].[Gd+3] [Gd-DTPA-BMA]
LD50 (Mouse [2]): 34.4 mmol·kg | Effective dose (ED) (Mouse [3]): 0.1 mmol·kg

CC(O)CN1CCN(CC(=O)[O-])CCN(CC(=O)[O-])CCN(CC(=O)[O-])CC1.[Gd+3] (stereo not drawn) [Gd-HP-DO3A]
LD50 (Mouse [2]): 12.0 mmol·kg | Effective dose (ED) (Mouse [3]): 0.1 mmol·kg

CNC[C@H](O)[C@@H](O)[C@H](O)[C@H](O)CO.O=C([O-])CN1CCN(CC(=O)[O-])CCN(CC(=O)O)CCN(CC(=O)[O-])CC1.[Gd+3] [NMG-Gd-DOTA]
LD50 (Mouse [2]): 11.2 mmol·kg | Effective dose (ED) (Mouse [3]): 0.1 mmol·kg
